Reference: patent US9861694B2, “EGFR antagonist for the treatment of heart disease” (priority 2010, dated 2018)

Legend:
[1] = tested on: adult cardiac myofibroblasts; test: Collagen I/III and TGF-β1 expression by real-time RT-PCR in treated cardiac myofibroblasts; type: cell-based, mice; details: for decrease in TGF-β1 levels / decrease in collagen I expression / decrease in collagen III expression: 10 ng/ml EGF, 24 hours
Method: (§1) Cardiac myofibroblast cultures were prepared from ventricles of WT and TIMP-3^−/− mice as previously described. Briefly, hearts were aseptically isolated from adult mice. The ventricles were minced and digested with collagenase and disapase. Fibroblasts subcultured for 2 generations were seeded on culture plates and used for all in vitro experiments. After 2 passages virtually all fibroblasts differentiate into myofibroblasts. Purity of myofibroblasts was verified by FSP-1 and α-smooth muscle actin double staining. Cell proliferation was assessed by Ki67 and FSP-1 double staining.
(§2) To determine the effect of EGF and TGF-β1 on collagen expression and synthesis, adult cardiac myofibroblasts subcultured for 2 generations were placed in low serum (5% FBS) for 24 hours and subsequently treated with either recombinant mouse EGF (rEGF, R&D […], CA) in DMEM containing 5% FBS and cultured for another 24 hours or with TGF-β1 (Millipore, Mass.) and cultured for another 48 hours. Cells were then harvested and experiments were conducted.
Total RNA was extracted from adult cultured myofibroblasts as well as LV tissue of WT and TIMP-3^−/− sham and the infarct region of MI mice 5 days post-surgery using Trizol as previously described. cDNA was synthesized using M-MLV reverse transcriptase (Invitrogen, ON). Real-time PCR was conducted using SYBR Green PCR Master Mix as per manufacturer's instructions (Applied Biological Materials, BC). 28S rRNA (house keeping gene) was used as a loading control since previous studies have shown that it is a reliable loading control especially for use in experiments with hypoxia and MI [13].

[2] = tested on: adult cardiac myofibroblasts; test: Collagen I synthesis by PINP ELISA in conditioned media of treated cardiac myofibroblasts; type: cell-based, mice; details: for decrease in collagen I synthesis: 10 ng/ml EGF, 24 hours
Method: as §1, §2
Collagen I synthesis was assessed in the LV myocardium and in conditioned media collected for cultured myofibroblasts using a rat/mouse procollagen I N-terminal peptide (PINP) ELISA kit (IDS-Medicorp, Quebec) according to the manufacturer's instructions. The LV tissues of sham mice and the infarct regions of WT and TIMP-3^−/− mice 5 days post-MI were homogenized in PBS and centrifuged. The supernatant was then collected and protein concentrations were measured. For tissues, 25 μg of total protein was used, while for media, 10 μL of conditioned media was used in the assay. Measurements of absorbances were made using SpectraMax M5 microplate reader at a wavelength of 450 nm. Values are expressed as either ng collagen per mg myocardial tissue or ng/ml conditioned media.

[3] = 10 ng/ml TGF-β1 (high concentration), 48 hours, P<0.01

Substance	effect on collagen I or III expression ([1]; 1 ng/ml EGF (low concentration))	decrease in TGF-β1 levels ([1]; TIMP-3−/− myofibroblasts)	decrease in collagen I expression ([1]; TIMP-3−/− myofibroblasts)	decrease in collagen III expression ([1]; TIMP-3−/− myofibroblasts)	decrease in TGF-β1 levels ([1]; WT myofibroblasts)	decrease in collagen I expression ([1]; WT myofibroblasts)	decrease in collagen III expression ([1]; WT myofibroblasts)	decrease in collagen I synthesis ([2]; TIMP-3−/− myofibroblasts)	decrease in collagen I synthesis ([2]; WT myofibroblasts)	collagen I and III expression ([1]; 1 ng/ml TGF-β1 (low concentration), 48 hours, P<0.05)	collagen I expression [1, 3]	effect on collagen III compared to controls ([1]; 10 ng/ml TGF-β1 (high concentration), 48 hours, P=n.s.)	collagen I synthesis [2, 3]
EGF: recombinant mouse epidermal growth factor (rEGF) used to treat cardiac myofibroblasts	little effect	43%	47%	51%	22%	38%	41%	39%	28%	–	–	–	–
TGF-β1: human recombinant transforming growth factor-beta 1 (Millipore) used to treat cardiac myofibroblasts	–	–	–	–	–	–	–	–	–	significant increase	further increase	no effect	further increase
